The values that follow come from PubChem BioAssay AID256 (DTP/NCI, 2004).

Several values for one entry are separate records, joined by “and”; a condition that tells them apart may be missing. Equal values may be shown once. Toxic doses and inconclusive results are not listed.

The subject of this test is CD2F1 mice, L1210 leukemia ip, survival T/C. Kind of test: NCI In Vivo Anticancer Drug Screen. Data for tumor model L1210 Leukemia (intraperitoneal) in CD2F1 (CDF1) mice. Particulars: higher = longer survival. How it is done:
The antitumor activity of compounds was measured in mice bearing transplantable tumors. Survival or tumor size were measured and the results are expressed as the measurement made in the treated group (T) divided by the measurement made in the vehicle treated control group (C). The tumor model used in this assay is L1210 Leukemia (intraperitoneal) in CD2F1 (CDF1) mice

Where [1] appears, read: endpoint: mean survival time, dose: 50.0 mg/kg/injection, schedule: Q01DX009 (ip), vehicle: saline with Tween-80.
Where [2] appears, read: endpoint: mean survival time, dose: 100.0 mg/kg/injection, schedule: Q01DX001 (ip), vehicle: saline with Tween-80.
[3] abbreviates: endpoint: mean survival time, dose: 100.0 mg/kg/injection, schedule: Q01DX009 (ip), vehicle: saline with Tween-80.
The mark [4] stands for this setting: endpoint: mean survival time, dose: 100.0 mg/kg/injection, schedule: Q04DX002 (ip), vehicle: saline with Tween-80.
The mark [5] stands for this setting: endpoint: mean survival time, dose: 100.0 mg/kg/injection, schedule: Q04DX003 (ip), vehicle: saline with Tween-80.
The mark [6] stands for this setting: endpoint: mean survival time, dose: 200.0 mg/kg/injection, schedule: Q01DX001 (ip), vehicle: saline with Tween-80.
Setting [7] is: endpoint: mean survival time, dose: 200.0 mg/kg/injection, schedule: Q01DX009 (ip), vehicle: saline with Tween-80.
[8] abbreviates: endpoint: mean survival time, dose: 200.0 mg/kg/injection, schedule: Q04DX002 (ip), vehicle: saline with Tween-80.
Setting [9] is: endpoint: mean survival time, dose: 400.0 mg/kg/injection, schedule: Q04DX002 (ip), vehicle: saline with Tween-80.
Setting [10] is: endpoint: mean survival time, dose: 25.0 mg/kg/injection, schedule: Q01DX009 (ip), vehicle: Klucel (hydroxypropylcellulose) (HPC).
The mark [11] stands for this setting: endpoint: mean survival time, dose: 200.0 mg/kg/injection, schedule: Q04DX003 (ip), vehicle: saline with Tween-80.
Where [12] appears, read: endpoint: mean survival time, dose: 400.0 mg/kg/injection, schedule: Q04DX003 (ip), vehicle: saline with Tween-80.

With `Cc1ccc2cc3c(cc2c1C)sc1ccccc13`, the T/C is, setting by setting: (endpoint: mean survival time, dose: 8.8 mg/kg/injection, schedule: Q04DX003 (ip), vehicle: other) 108 % of control; (endpoint: mean survival time, dose: 17.5 mg/kg/injection, schedule: Q04DX003 (ip), vehicle: other) 115 % of control; (endpoint: mean survival time, dose: 35.0 mg/kg/injection, schedule: Q04DX003 (ip), vehicle: other) 108 % of control; (endpoint: mean survival time, dose: 70.0 mg/kg/injection, schedule: Q04DX003 (ip), vehicle: other) 97 % of control; (endpoint: mean survival time, dose: 140.0 mg/kg/injection, schedule: Q04DX003 (ip), vehicle: other) 93 % of control.
Regarding `CCOC(=O)c1ccc(NC(=O)Nc2ccc(Nc3ccccc3)cc2)cc1`, the T/C is, setting by setting: (endpoint: mean survival time, dose: 25.0 mg/kg/injection, schedule: Q04DX003 (ip), vehicle: saline with Tween-80) 96 % of control; under setting [1], 96 % of control and 102 % of control; (endpoint: mean survival time, dose: 50.0 mg/kg/injection, schedule: Q04DX003 (ip), vehicle: saline with Tween-80) 91 % of control; under setting [2], 100 % of control; under setting [3], 96 % of control and 102 % of control; under setting [4], 86 % of control and 97 % of control. Also, the T/C is 92 % of control under setting [5]; 94 % of control under setting [6]; 95 % of control and 98 % of control under setting [7]; 87 % of control and 91 % of control under setting [8]; 103 % of control (endpoint: mean survival time, dose: 400.0 mg/kg/injection, schedule: Q01DX001 (ip), vehicle: saline with Tween-80); 87 % of control under setting [9].
For the compound `CS/C([S-])=N/[NH-].CS/C([S-])=N/[NH-].[Pd]`, the T/C by setting is: under setting [2], 107 % of control; under setting [6], 103 % of control.
With `COc1cc(Cl)ccc1NC(=O)Nc1ccc(CCO)cc1`, the T/C reads like this: under setting [1], 93 % of control; under setting [3], 93 % of control.
On to `O=C(COc1ccc(Cl)cc1Cl)Nc1cccc(Cl)c1`, for which the T/C by setting is: under setting [4], 101 % of control; under setting [8], 101 % of control; under setting [9], 93 % of control.
Take `CC1(C)COC(=O)C(C)(C)C1=O`: the T/C is, setting by setting: (endpoint: mean survival time, dose: 25.0 mg/kg/injection, schedule: Q04DX002 (ip), vehicle: saline with Tween-80) 107 % of control; (endpoint: mean survival time, dose: 50.0 mg/kg/injection, schedule: Q04DX002 (ip), vehicle: saline with Tween-80) 96 % of control; under setting [4], 96 % of control.
As for `O=C(O)c1ccc([As](=O)(O)O)cc1`, the T/C is 102 % of control (endpoint: mean survival time, dose: 6.25 mg/kg/injection, schedule: Q01DX009 (ip), vehicle: Klucel (hydroxypropylcellulose) (HPC)); 98 % of control (endpoint: mean survival time, dose: 12.5 mg/kg/injection, schedule: Q01DX009 (ip), vehicle: Klucel (hydroxypropylcellulose) (HPC)); 87 % of control and 92 % of control under setting [10].
`COc1ccc(-c2cc(C(=O)O)c3ccc(C)cc3n2)cc1`: the T/C under setting [5] was 102 % of control, the T/C under setting [11] is 101 % of control and the T/C under setting [12] is 101 % of control.
As to `NC(N)=NCCCC(N=Cc1ccccc1)C(=O)O` (configuration not stated), the T/C (endpoint: mean survival time, dose: 100.0 mg/kg/injection, schedule: Q01DX001 (ip), vehicle: saline) is 102 % of control; the T/C (endpoint: mean survival time, dose: 200.0 mg/kg/injection, schedule: Q01DX001 (ip), vehicle: saline) was 102 % of control; the T/C (endpoint: mean survival time, dose: 400.0 mg/kg/injection, schedule: Q01DX001 (ip), vehicle: saline) is 90 % of control.
On to `CC(=O)OC1(C)CC(C)(C)N=N1` (configuration not stated), for which the T/C by setting is: under setting [10], 97 % of control; (endpoint: mean survival time, dose: 50.0 mg/kg/injection, schedule: Q01DX009 (ip), vehicle: Klucel (hydroxypropylcellulose) (HPC)) 99 % of control; (endpoint: mean survival time, dose: 100.0 mg/kg/injection, schedule: Q01DX009 (ip), vehicle: Klucel (hydroxypropylcellulose) (HPC)) 97 % of control; (endpoint: mean survival time, dose: 200.0 mg/kg/injection, schedule: Q01DX009 (ip), vehicle: Klucel (hydroxypropylcellulose) (HPC)) 97 % of control; (endpoint: mean survival time, dose: 400.0 mg/kg/injection, schedule: Q01DX009 (ip), vehicle: Klucel (hydroxypropylcellulose) (HPC)) 97 % of control.
For `Cc1ccc(-c2cc(Cl)c3cc(S(=O)(=O)F)ccc3n2)cc1`, the T/C was 102 % of control under setting [3]; 104 % of control under setting [5]; 98 % of control under setting [7]; 102 % of control under setting [11]; 90 % of control (endpoint: mean survival time, dose: 400.0 mg/kg/injection, schedule: Q01DX009 (ip), vehicle: saline with Tween-80); 107 % of control under setting [12].
`CN(Cc1ccccc1)C(c1ccccc1)C(O)C(O)(c1ccccc1)c1ccccc1` (configuration not stated): the T/C (endpoint: mean survival time, dose: 100.0 mg/kg/injection, schedule: Q04DX003 (ip), vehicle: acetone) was 97 % of control; the T/C (endpoint: mean survival time, dose: 200.0 mg/kg/injection, schedule: Q04DX003 (ip), vehicle: acetone) was 97 % of control; the T/C (endpoint: mean survival time, dose: 400.0 mg/kg/injection, schedule: Q04DX003 (ip), vehicle: acetone) is 90 % of control.
Take `COc1ccc(N=C(C)CC(C)=O)cc1`: the T/C is, setting by setting: under setting [4], 98 % of control; under setting [8], 95 % of control; under setting [9], 95 % of control.
Turning to `O=[N+]([O-])c1ccc2c(c1)Cc1cc(N(CBr)CBr)ccc1-2`, the T/C reads like this: (endpoint: mean survival time, dose: 100.0 mg/kg/injection, schedule: Q04DX003 (ip), vehicle: saline) 109 % of control; (endpoint: mean survival time, dose: 200.0 mg/kg/injection, schedule: Q04DX003 (ip), vehicle: saline) 107 % of control; (endpoint: mean survival time, dose: 400.0 mg/kg/injection, schedule: Q04DX003 (ip), vehicle: saline) 121 % of control.
As for `CC(C)(C)Sc1cccnc1` (tested in a mixture with another compound), the T/C is, setting by setting: under setting [3], 92 % of control; under setting [7], 93 % of control.
`Cc1cc(C)c(C)c(Br)c1`: the T/C is 95 % of control (endpoint: mean survival time, dose: 100.0 mg/kg/injection, schedule: Q01DX009 (ip), vehicle: saline sonified); 100 % of control under setting [5]; 102 % of control under setting [12].
Consider `CC(=O)NC(CSC(c1ccccc1)(c1ccccc1)c1ccccc1)C(=O)O` (configuration not stated), for which the T/C (endpoint: mean survival time, dose: 25.0 mg/kg/injection, schedule: Q01DX009 (ip), vehicle: saline) was 101 % of control; the T/C (endpoint: mean survival time, dose: 50.0 mg/kg/injection, schedule: Q01DX009 (ip), vehicle: saline) is 100 % of control; the T/C (endpoint: mean survival time, dose: 100.0 mg/kg/injection, schedule: Q01DX009 (ip), vehicle: saline) was 101 % of control.
On to `CC(=O)Nc1ccc(/C=N\NC(=O)C2CC2)cc1`, for which the T/C under setting [5] is 93 % of control, the T/C under setting [11] is 96 % of control and the T/C under setting [12] is 93 % of control.
For the compound `CN(C)S(=O)(=O)Oc1ccccc1N`, the T/C runs as follows: under setting [5], 99 % of control; under setting [11], 87 % of control; under setting [12], 94 % of control.
With `CC[C@@]1(O)C(=O)OCc2c1cc1n(c2=O)Cc2cc3c(CN(C)C)c(O)ccc3nc2-1`, the T/C reads like this: (endpoint: median survival time, dose: 5.0 mg/kg/injection, schedule: Q04DX002 (ip), vehicle: water) 119 % of control; (endpoint: median survival time, dose: 20.0 mg/kg/injection, schedule: Q04DX002 (ip), vehicle: water) 183 % of control; (endpoint: median survival time, dose: 40.0 mg/kg/injection, schedule: Q04DX002 (ip), vehicle: water) 264 % of control.
Take `O=C1C(N2CC2)=C(N2CCCC(O)C2)C(=O)C(N2CC2)=C1N1CCCC(O)C1` (configuration not stated): the T/C (endpoint: mean survival time, dose: 2.0 mg/kg/injection, schedule: Q01DX009 (ip), vehicle: saline) is 162 % of control and 173 % of control.
Consider `Nc1ncnc2c1ncn2C1OC(COCc2ccccc2)C(OCc2ccccc2)C1OCc1ccccc1` (configuration not stated), for which the T/C (endpoint: mean survival time, dose: 20.0 mg/kg/injection, schedule: Q01DX Z (ip), vehicle: saline) is 90 % of control; the T/C (endpoint: mean survival time, dose: 40.0 mg/kg/injection, schedule: Q01DX Z (ip), vehicle: saline) was 90 % of control; the T/C (endpoint: mean survival time, dose: 80.0 mg/kg/injection, schedule: Q01DX Z (ip), vehicle: saline) is 90 % of control and 93 % of control; the T/C (endpoint: mean survival time, dose: 160.0 mg/kg/injection, schedule: Q01DX Z (ip), vehicle: saline) was 91 % of control and 96 % of control.
As for `CC(C)CC(N)C(=O)NCCCCCCCCCCNC(=O)C(N)CC(C)C` (configuration not stated), the T/C runs as follows: (endpoint: mean survival time, dose: 6.25 mg/kg/injection, schedule: Q01DX010 (ip), vehicle: saline) 100 % of control; (endpoint: mean survival time, dose: 12.5 mg/kg/injection, schedule: Q01DX010 (ip), vehicle: saline) 113 % of control; (endpoint: mean survival time, dose: 25.0 mg/kg/injection, schedule: Q01DX010 (ip), vehicle: saline) 97 % of control; (endpoint: mean survival time, dose: 50.0 mg/kg/injection, schedule: Q01DX010 (ip), vehicle: saline) 91 % of control.
